Here are results for eleven compounds from US12404241B2 (Celgene Corporation, priority 2018, dated 2025).

The target of the test is T1, AR (Homo sapiens, UniProt P10275).
T1 construct: endogenous in cells; host or cells: VCaP cells
T1 sequence (P10275 1-920): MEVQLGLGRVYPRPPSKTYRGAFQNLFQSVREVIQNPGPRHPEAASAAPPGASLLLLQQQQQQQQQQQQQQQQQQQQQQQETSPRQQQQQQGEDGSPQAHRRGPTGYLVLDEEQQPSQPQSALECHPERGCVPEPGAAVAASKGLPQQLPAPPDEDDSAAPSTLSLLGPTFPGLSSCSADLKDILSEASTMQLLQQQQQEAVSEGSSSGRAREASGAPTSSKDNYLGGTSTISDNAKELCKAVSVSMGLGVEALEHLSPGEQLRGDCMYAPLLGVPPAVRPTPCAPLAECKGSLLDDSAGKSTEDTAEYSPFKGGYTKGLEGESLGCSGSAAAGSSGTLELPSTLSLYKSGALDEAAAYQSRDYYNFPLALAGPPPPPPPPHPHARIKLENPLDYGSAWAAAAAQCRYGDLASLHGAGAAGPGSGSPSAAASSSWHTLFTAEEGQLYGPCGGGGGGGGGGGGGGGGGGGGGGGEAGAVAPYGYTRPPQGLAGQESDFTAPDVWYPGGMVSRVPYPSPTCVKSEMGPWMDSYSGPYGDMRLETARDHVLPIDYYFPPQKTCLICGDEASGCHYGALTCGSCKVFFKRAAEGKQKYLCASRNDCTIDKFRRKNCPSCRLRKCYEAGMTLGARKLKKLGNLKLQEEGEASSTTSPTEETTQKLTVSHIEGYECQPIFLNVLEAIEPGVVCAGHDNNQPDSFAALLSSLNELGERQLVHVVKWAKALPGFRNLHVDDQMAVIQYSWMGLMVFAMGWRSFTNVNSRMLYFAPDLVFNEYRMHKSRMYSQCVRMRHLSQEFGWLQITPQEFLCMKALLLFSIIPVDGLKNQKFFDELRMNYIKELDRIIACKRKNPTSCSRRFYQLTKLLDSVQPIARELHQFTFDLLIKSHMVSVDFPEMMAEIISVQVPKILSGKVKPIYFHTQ
Kind of test: VCAP AR Degradation Assay. Type of test: cell-based. Particulars: for Y (AR degradation efficiency, % of DMSO control): class symbols *; for DC50: class symbols A-C. An outline of the steps: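 AR protein in lysates quantified by sandwich ELISA after 24 h exposure of VCaP cells at 37 °C to 10 concentrations (1:3 steps, 5 μM top, final). Four-parameter logistic fit of percent-of-DMSO levels gave DC50 (50% degradation), EC50 and minimal AR level Y.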

Where two headings read alike, the source gives them in different places.

In general, DC50 refers to the concentration giving 50% degradation. As to `CC(C)c1cc(N2C(=S)N(c3ccc(C#N)c(C(F)(F)F)c3)C(=O)C2(C)C)ccc1OCCN1C[C@@H](C)N(CC(=O)Nc2cc(Cl)cc(NC3CCC(=O)NC3=O)c2)C[C@H]1C` (stereo partly drawn) [Example 175, N-(3-chloro-5-(2,6-dioxopiperidin-3-ylamino)phenyl)-2-((2R,5R)-4-(2-(4-(3-(4-cyano-3-(trifluoromethyl)phenyl)-5,5-dimethyl-4-oxo-2-thioxoimidazolidin-1-yl)-2-isopropylphenoxy)ethyl)-2,5-dimethylpiperazin-1-yl)acetamide], the “Y (AR degradation efficiency, % of DMSO control)” value was “* (0<Y<=25%)”. Moreover, the DC50 (read-out: DC50) lay within 100 to 500 nM.
With `CC(C)c1cc(N2C(=S)N(c3cnc(C#N)c(C(F)(F)F)c3)C(=O)C23CCC3)ccc1OCCN1C[C@@H](C)N(CC(=O)Nc2cccc(NC3CCC(=O)NC3=O)c2)[C@@H](C)C1` (stereo partly drawn) [Example 176, 2-((2S,6R)-4-(2-(4-(7-(6-cyano-5-(trifluoromethyl)pyridin-3-yl)-8-oxo-6-thioxo-5,7-diazaspiro[3.4]octan-5-yl)-2-isopropylphenoxy)ethyl)-2,6-dimethylpiperazin-1-yl)-N-(3-(2,6-dioxopiperidin-3-ylamino)phenyl)acetamide], the “Y (AR degradation efficiency, % of DMSO control)” value was “* (0<Y<=25%)”. Under “read-out: DC50”, the DC50 is less than 100 nM.
Regarding `CCc1cc(N2C(=S)N(c3ccc(C#N)c(C(F)(F)F)c3)C(=O)C2(C)C)ccc1OCCN1CC2CCC(C1)N2CC(=O)Nc1cccc(NC2CCC(=O)NC2=O)c1` (stereo not shown) [Example 177, 2-(3-(2-(4-(3-(4-cyano-3-(trifluoromethyl)phenyl)-5,5-dimethyl-4-oxo-2-thioxoimidazolidin-1-yl)-2-ethylphenoxy)ethyl)-3,8-diazabicyclo[3.2.1]octan-8-yl)-N-(3-(2,6-dioxopiperidin-3-ylamino)phenyl)acetamide], the “Y (AR degradation efficiency, % of DMSO control)” value is given as “* (0<Y<=25%)”. Besides, for the setting “read-out: DC50”, the DC50 is 100 to 500 nM.
Turning to `CCc1cc(N2C(=S)N(c3cnc(C#N)c(C(F)(F)F)c3)C(=O)C2(C)C)ccc1OCCN1CC2CCC(C1)N2CC(=O)Nc1cccc(NC2CCC(=O)NC2=O)c1` (stereo not shown) [Example 178, 2-(3-(2-(4-(3-(6-cyano-5-(trifluoromethyl)pyridin-3-yl)-5,5-dimethyl-4-oxo-2-thioxoimidazolidin-1-yl)-2-ethylphenoxy)ethyl)-3,8-diazabicyclo[3.2.1]octan-8-yl)-N-(3-(2,6-dioxopiperidin-3-ylamino)phenyl)acetamide], the “Y (AR degradation efficiency, % of DMSO control)” value was “** (25%<Y<=35%)” and the DC50 was less than 100 nM.
With `CCc1cc(N2C(=S)N(c3cnc(C#N)c(C(F)(F)F)c3)C(=O)C2(C)C)ccc1OCCN1C[C@@H]2CC[C@H]1CN2CC(=O)Nc1cc(Cl)cc(NC2CCC(=O)NC2=O)c1` (stereo partly drawn) [Example 179, N-(3-chloro-5-(2,6-dioxopiperidin-3-ylamino)phenyl)-2-((1S,4S)-5-(2-(4-(3-(6-cyano-5-(trifluoromethyl)pyridin-3-yl)-5,5-dimethyl-4-oxo-2-thioxoimidazolidin-1-yl)-2-ethylphenoxy)ethyl)-2,5-diazabicyclo[2.2.2]octan-2-yl)acetamide], the “Y (AR degradation efficiency, % of DMSO control)” value was “** (25%<Y<=35%)”. For the same compound, the DC50 (read-out: DC50) was in the range of 100 to 500 nM.
For `CC(C)c1cc(N2C(=S)N(c3cnc(C#N)c(C(F)(F)F)c3)C(=O)C2(C)C)ccc1OCCN1C[C@@H](C)N(CC(=O)Nc2cccc(NC3CCC(=O)NC3=O)c2)[C@@H](C)C1` (stereo partly drawn) [Example 180, 2-((2S,6R)-4-(2-(4-(3-(6-cyano-5-(trifluoromethyl)pyridin-3-yl)-5,5-dimethyl-4-oxo-2-thioxoimidazolidin-1-yl)-2-isopropylphenoxy)ethyl)-2,6-dimethylpiperazin-1-yl)-N-(3-(2,6-dioxopiperidin-3-ylamino)phenyl)acetamide], in that order: “* (0<Y<=25%)” and less than 100 nM.
For the compound `CCc1cc(N2C(=S)N(c3ccc(C#N)c(C(F)(F)F)c3)C(=O)C2(C)C)ccc1OCCN1C[C@@H](C)N(CC(=O)Nc2cc(C#N)cc(NC3CCC(=O)NC3=O)c2)C[C@H]1C` (stereo partly drawn) [Example 181, 2-((2R,5R)-4-(2-(4-(3-(4-cyano-3-(trifluoromethyl)phenyl)-5,5-dimethyl-4-oxo-2-thioxoimidazolidin-1-yl)-2-ethylphenoxy)ethyl)-2,5-dimethylpiperazin-1-yl)-N-(3-cyano-5-(2,6-dioxopiperidin-3-ylamino)phenyl)acetamide], the “Y (AR degradation efficiency, % of DMSO control)” value was “* (0<Y<=25%)”. Moreover, the DC50 (read-out: DC50) is less than 100 nM.
In the same order, the values of `CCc1cc(N2C(=S)N(c3cnc(C#N)c(C(F)(F)F)c3)C(=O)C23CCC3)ccc1OCCN1C[C@H]2CC[C@@H]1CN2CC(=O)Nc1cccc(NC2CCC(=O)NC2=O)c1` (stereo partly drawn) [Example 182, 2-((1R,4R)-5-(2-(4-(7-(6-cyano-5-(trifluoromethyl)pyridin-3-yl)-8-oxo-6-thioxo-5,7-diazaspiro[3.4]octan-5-yl)-2-ethylphenoxy)ethyl)-2,5-diazabicyclo[2.2.2]octan-2-yl)-N-(3-(2,6-dioxopiperidin-3-ylamino)phenyl)acetamide] are “** (25%<Y<=35%)” and 100 to 500 nM.
Regarding `CCc1cc(N2C(=S)N(c3cnc(C#N)c(C(F)(F)F)c3)C(=O)C2(C)C)ccc1OCCN1C[C@H]2CC[C@@H]1CN2CC(=O)Nc1cccc(NC2CCC(=O)NC2=O)c1` (stereo partly drawn) [Example 183, 2-((1R,4R)-5-(2-(4-(3-(6-cyano-5-(trifluoromethyl)pyridin-3-yl)-5,5-dimethyl-4-oxo-2-thioxoimidazolidin-1-yl)-2-ethylphenoxy)ethyl)-2,5-diazabicyclo[2.2.2]octan-2-yl)-N-(3-(2,6-dioxopiperidin-3-ylamino)phenyl)acetamide], the “Y (AR degradation efficiency, % of DMSO control)” value is listed as “** (25%<Y<=35%)”. Further, the DC50 (read-out: DC50) fell in the range of 100 to 500 nM.
Take `CCc1cc(N2C(=S)N(c3cnc(C#N)c(C(F)(F)F)c3)C(=O)C2(C)C)ccc1OCCN1C[C@H]2CC[C@@H]1CN2CC(=O)Nc1cc(Cl)cc(NC2CCC(=O)NC2=O)c1` (stereo partly drawn) [Example 184, N-(3-chloro-5-(2,6-dioxopiperidin-3-ylamino)phenyl)-2-((1R,4R)-5-(2-(4-(3-(6-cyano-5-(trifluoromethyl)pyridin-3-yl)-5,5-dimethyl-4-oxo-2-thioxoimidazolidin-1-yl)-2-ethylphenoxy)ethyl)-2,5-diazabicyclo[2.2.2]octan-2-yl)acetamide]: the “Y (AR degradation efficiency, % of DMSO control)” value was “** (25%<Y<=35%)”. In addition, for the setting “read-out: DC50”, the DC50 lay in the range of 100 to 500 nM.
With `CC(C)c1cc(N2C(=S)N(c3cnc(C#N)c(C(F)(F)F)c3)C(=O)C2(C)C)ccc1OCCN1C[C@@H](C)N(CC(=O)Nc2cc(Cl)cc(NC3CCC(=O)NC3=O)c2)C[C@H]1C` (stereo partly drawn) [Example 185, N-(3-chloro-5-(2,6-dioxopiperidin-3-ylamino)phenyl)-2-((2R,5R)-4-(2-(4-(3-(6-cyano-5-(trifluoromethyl)pyridin-3-yl)-5,5-dimethyl-4-oxo-2-thioxoimidazolidin-1-yl)-2-isopropylphenoxy)ethyl)-2,5-dimethylpiperazin-1-yl)acetamide], the “Y (AR degradation efficiency, % of DMSO control)” value is “* (0<Y<=25%)”. The half-maximal degradation concentration (DC50) (read-out: DC50) was in the range of 100 to 500 nM.
